This passage reports TGI results from PubChem BioAssay (NCI).

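Cultured in 96-well plates, cells were exposed to test compound for 48 hours across five concentrations. The concentration for full growth arrest is given as TGI.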

Among the test systems are SK-OV-3 ovarian; SN12C renal; KM12 colon; OVCAR-8 ovarian; NCI-H460 lung; NCI-H23 lung; SNB-78 CNS; DMS 114 small cell lung; IGROV1 ovarian; XF 498 CNS; A498 renal; RPMI-8226 leukemia; HOP-18 NSCLC; HL-60(TB) leukemia; CAKI-1 renal; MOLT-4 leukemia; UACC-62 melanoma; UACC-257 melanoma; TK-10 renal; MDA-MB-231 breast.
Holding throughout (assay): NCI tumour cell line growth inhibition, 48 h

In the case of `O=C(O)CCCCCCCCC(=O)O`, the TGI with SK-OV-3 ovarian, with SN12C renal, with KM12 colon, in the test with OVCAR-8 ovarian, in the test on NCI-H460 lung and in the test on NCI-H23 lung was greater than 500 µM throughout. Besides, the TGI in the test on SNB-78 CNS is greater than 500 µM; in the test with DMS 114 small cell lung, greater than 500 µM; in the test on IGROV1 ovarian, greater than 500 µM; in the test on XF 498 CNS it was greater than 50 µM; in the test with A498 renal, greater than 23.2 µM; with RPMI-8226 leukemia, greater than 500 µM. Further, the TGI was greater than 500 µM in the test with HOP-18 NSCLC; greater than 281 µM in the test with HL-60(TB) leukemia; greater than 500 µM with CAKI-1 renal; greater than 500 µM in the test with MOLT-4 leukemia; greater than 500 µM in the test with UACC-62 melanoma; greater than 500 µM in the test on UACC-257 melanoma.
Consider `COc1ccc([C@H]2C=[N+]([O-])O[C@H](OC3CCCC3)[C@@H]2OC(C)=O)cc1OC`, for which the TGI was greater than 100 µM in the test with SK-OV-3 ovarian; 72.4 µM with KM12 colon; 62.2 µM in the test with OVCAR-8 ovarian; greater than 100 µM in the test on NCI-H460 lung; 57.2 µM in the test on NCI-H23 lung; 52.4 µM with IGROV1 ovarian. Further, the TGI is 68.2 µM in the test on TK-10 renal; greater than 100 µM in the test with A498 renal; greater than 100 µM with RPMI-8226 leukemia; 39.1 µM with HL-60(TB) leukemia; 29.3 µM with CAKI-1 renal; greater than 100 µM in the test on MOLT-4 leukemia. For the same compound, the figures for the TGI in the test on UACC-62 melanoma, with MDA-MB-231 breast and with UACC-257 melanoma were 77.7 µM, 78.2 µM and 54.3 µM, respectively.
`O=S1(=O)C[C@@H](NCc2ccccc2)[C@H](NCc2ccccc2)C1`: the TGI in the test with SK-OV-3 ovarian, in the test on SN12C renal, in the test on KM12 colon, in the test on OVCAR-8 ovarian, in the test with NCI-H460 lung and with NCI-H23 lung was greater than 100 µM throughout. Besides, the TGI with IGROV1 ovarian, with TK-10 renal, with RPMI-8226 leukemia, in the test on CAKI-1 renal, in the test with MOLT-4 leukemia and in the test on UACC-62 melanoma was greater than 100 µM each time. The TGI with MDA-MB-231 breast and in the test on UACC-257 melanoma was greater than 100 µM each time.
As to `O=C1c2cccc(O)c2C(=O)c2c(O)cc(CO)cc21`, the TGI with SK-OV-3 ovarian, with SN12C renal, in the test with KM12 colon, in the test with NCI-H460 lung, with NCI-H23 lung and with SNB-78 CNS was greater than 100 µM throughout. Further, the TGI in the test with DMS 114 small cell lung, in the test with TK-10 renal, with XF 498 CNS, in the test on A498 renal, in the test with RPMI-8226 leukemia and in the test with HOP-18 NSCLC was greater than 100 µM each time. The TGI in the test on HL-60(TB) leukemia, in the test on CAKI-1 renal, with MOLT-4 leukemia and in the test on UACC-257 melanoma was greater than 100 µM throughout.
In the case of `Cc1cc(C)c(/C=C(\C(=C/c2c(C)cc(C)cc2C)[N+](=O)[O-])[N+](=O)[O-])c(C)c1`, the TGI in the test with SK-OV-3 ovarian, in the test with SN12C renal, with KM12 colon, with NCI-H460 lung, in the test with NCI-H23 lung and with IGROV1 ovarian was greater than 100 µM throughout. In addition, the TGI in the test on TK-10 renal is greater than 100 µM; in the test on RPMI-8226 leukemia, 70.9 µM; in the test with CAKI-1 renal, greater than 100 µM; in the test on MOLT-4 leukemia, greater than 100 µM; in the test on UACC-62 melanoma it was greater than 100 µM; in the test with MDA-MB-231 breast, greater than 100 µM. Also, in the test on UACC-257 melanoma, the TGI is greater than 100 µM.
